Experimental data reported in US10195185B2, “3-(1H-imidazo[4,5-C]pyridin-2-yl)-1H-pyrazolo[4,3-B]pyridines and therapeutic uses thereof” (Samumed, LLC, priority 2015, dated 2019).

How the values were obtained:
Format in all cases: cell-based
[1] = system: IL-6 in human monocyte cell line (THP-1 cells); assay: IL-6 inhibition in LPS-stimulated THP-1 cells (HTRF); settings: IL-6 in LPS-stimulated THP-1 cells; for EC50: HTRF; for inhibition at 10 µM: read-out: percent inhibition in brackets beside EC50 >10 μM
Method in brief: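 THP-1 cells, serum-reduced (1% FBS) for 24 h, were preincubated with compound (10-point 1:3 series from 10 μM, 0.1% DMSO) for 2 h, then stimulated with 500 ng/mL LPS for 22 h at 37° C. IL-6 was read by HTRF (665/620 nm ratio) and normalized to DMSO. EC50 from four-parameter fit; % inhibition at 10 μM given if EC50 >10 μM.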

[2] = system: SW480 colon cancer cells; assay: Cell viability assay (CellTiter-Blue), four days; settings: Homo sapiens, 96 h; for EC50: CellTiter-Blue cell viability
Method in brief: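 Approximately 2×10^3 SW480 cells per well are seeded with compound (8 points, threefold steps, top 10 μM) and incubated four days at 37 °C. CellTiter-Blue is then added for about 3 h and fluorescence read. Non-linear regression gives EC50; for values beyond 10 μM, percent inhibition at that concentration is listed.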

[3] = system: primary human mesenchymal stem cells (hMSCs); assay: Induction of chondrogenesis in hMSCs (nodule area, Rhodamine B / Nile Red); settings: TGF-β3 as positive control; for Emax: read-out: Max. Activity as % TGF-β3 activity; for EC50: concentration required to induce 50% levels of chondrogenesis, read-out: Conc (nM) of 50% TGF-β3 activity
Method in brief: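 Primary hMSCs (passage 3–6) in incomplete chondrogenic induction medium were treated 6 days at 37° C. with 1:3 dilutions (2700–10 nM in 96-well or 5000–2.2 nM in 384-well; 0.03% DMSO). Rhodamine B/Nile Red-stained nodule area was imaged, normalized to DMSO wells, and EC50 was set against TGF-β3 (10 ng/mL).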

| Compound | EC50 [1] [µM] | inhibition at 10 µM [1] [%] | EC50 [2] [µM] | Emax [3] [%] | EC50 [3] [nM] | inhibition at 10 µM ([2]; 10 μM, read-out: percent inhibition at 10 μM (given for EC50 of >10 μM)) [%] |
| --- | --- | --- | --- | --- | --- | --- |
| NC1CN(c2cncc(-c3ccc4[nH]nc(-c5nc6c(-c7cccc(F)c7)nccc6[nH]5)c4n3)n2)C1 [Compound 510, 1-(6-(3-(4-(3-Fluorophenyl)-1H-imidazo[4,5-c]pyridin-2-yl)-1H-pyrazolo [4,3-b]pyridin-5-yl)pyrazin-2-yl)azetidin-3-amine] | > 10 | 9.4 | 9.29 | 36 | – | – |
| CN(C)Cc1cncc(-c2ccc3[nH]nc(-c4nc5c(-c6cccc(F)c6)nccc5[nH]4)c3n2)c1 [Compound 13, 1-(5-(3-(4-(3-Fluorophenyl)-1H-imidazo[4,5-c]pyridin-2-yl)-1H-pyrazolo [4,3-b]pyridin-5-yl)pyridin-3-yl)-N,N-dimethylmethanamine] | 3.82 | – | 0.641 | 76 | 30 | – |
| CN(C)Cc1cncc(-c2ccc3[nH]nc(-c4nc5c(-c6cccs6)nccc5[nH]4)c3n2)c1 [Compound 349, N,N-dimethyl-1-(5-(3-(4-(thiophen-2-yl)-1H-imidazo[4,5-c]pyridin-2-yl)-1H-pyrazolo[4,3-b]pyridin-5-yl)pyridin-3-yl)methanamine] | > 10 | 0 | 1.27 | 75 | 10 | – |
| CN(C)CCOc1cncc(-c2ccc3[nH]nc(-c4nc5c(-c6cccc(F)c6)nccc5[nH]4)c3n2)c1 [Compound 515, 2-((5-(3-(4-(3-Fluorophenyl)-1H-imidazo[4,5-c]pyridin-2-yl)-1H-pyrazolo [4,3-b]pyridin-5-yl)pyridin-3-yl)oxy)-N,N-dimethylethan-1-amine] | 3.57 | – | 1.61 | 59 | 2 | – |
| Cc1ccncc1-c1ccc2[nH]nc(-c3nc4c(-c5cc(F)cc(CNS(C)(=O)=O)c5)nccc4[nH]3)c2n1 [Compound 481, N-(3-Fluoro-5-(2-(5-(4-methylpyridin-3-yl)-1H-pyrazolo[4,3-b]pyridin-3-yl)-1H-imidazo[4,5-c]pyridin-4-yl)benzyl)methanesulfonamide] | 9.81 | – | 7.14 | 30 | – | – |
| Fc1cccc(-c2nccc3[nH]c(-c4n[nH]c5ccc(C6CCNCC6)nc45)nc23)c1 [Compound 505, 3-(4-(3-Fluorophenyl)-1H-imidazo[4,5-c]pyridin-2-yl)-5-(piperidin-4-yl)-1H-pyrazolo[4,3-b]pyridine] | > 10 | 9.3 | > 10 | 46 | – | 0.4 |
